The values that follow come from patent publication US6979545B2, “Method for determining chemical reactivity” (Pharmacia & Upjohn Company, priority 2000, dated 2005).

The structures appear in SMILES notation. Where two headings read alike, the source gives them in different places.

Data set [1] can be described thus: GSH reactivity screen (mercury orange fluorescence, 96-well). It counts as physicochemical. The note with it: for potential reactivity using the GSH reactivity screen: residual GSH by HgO fluorescence, electrophile criterion e.g. <20% GSH remaining. As for the experimental part: The test compounds as listed in Table 2 to be screened are dissolved in dimethyl sulfoxide (DMSO) to a final concentration of 10 mM, and 2 μL is transferred to the wells of a polypropylene 96-well microtiter plate. […] Mercury orange (HgO) stock solution (470 μM) is prepared in acetone and stored at 4° C. […] A 48 μL aliquot of the GSH working solution is pipetted into the 96-well tray containing the test compounds to yield a final concentration of 200 μM GSH. The reaction of the test compound with the GSH is allowed to proceed for 1 h at room temperature after which time an aliquot of HgO is added to each reaction well to yield a final concentration of 50 μM GSH/HgO. […] Assay linearity is investigated by preparing a GSH standard curve in the concentration range 0 to 50 μM (final concentration). Routine sample analysis is achieved using a Biomek 2000 biorobotic system configured with six 96-well plates and 2 reagent reservoirs.
Compounds are then identified as elelctrophiles based upon a predetermined criteria of GSH consumption (e.g., <20% GSH remaining).

The nature of data set [2]: fluorescein-5-maleimide (FM)/GSH competition fluorescence test. It is filed as physicochemical. The note with it: for level of fluorescence, visual observation of the cuvette: compared to a standard without the compound for screening; for electrophilic properties (conclusion): from FM/GSH fluorescence. As for the experimental part: A small aliquot of fluroescein-5-maleimide (FM) in dimethyl sulfoxide (DMSO) is added to a fluorometric cuvette containing 2 ml of phosphate buffered saline at a pH of 7.40. A test compound for screening in DMSO is added to the cuvette, as is a small aliquot of GSH solution. The mixture is exposed to light at 490 nm and emission is observed through a 530 nm bandpass filter. The color of the resulting mixture is observed and the amount of fluorescence is measured.

Where [3] appears, read: test compound with 200 μM GSH, 1 h at room temperature.
Setting [4] is: test compound with 200 μM GSH, 1 h at room temperature, no metabolic activation, no glutathione transferase.
The mark [5] stands for this setting: phosphate buffered saline pH 7.40, excitation 490 nm, emission 530 nm.

Take `O=[N+]([O-])c1csc(Br)n1` [2-Bromo-4-nitrothiazole]: in data set [1] (setting [3]), the “potential reactivity using the GSH reactivity screen” value (“potential reactivity” below) is on record as “R”. Also, the “result in the GSH screen (in words)” value in data set [1] (setting [4]) is “reactive”.

Take `CC(=O)Nc1ccc(O)cc1` [acetaminophen]: the “result in the GSH screen (in words)” value in data set [1] (setting [4]) was “non-reactive”.

On to `COc1ccc(O)c(C(C)(C)C)c1` [Butylated hydroxyanisole], for which the “result in the GSH screen (in words)” value in data set [1] (setting [4]) was “non-reactive”.

On to `CC/C(=C(\c1ccccc1)c1ccc(OCCN(C)C)cc1)c1ccccc1` [Tamoxifen], for which, in data set [1] (setting [4]), the “result in the GSH screen (in words)” value is listed as “non-reactive”.

With `Cc1ccccc1` [Toluene], the “result in the GSH screen (in words)” value in data set [1] (setting [4]) is “non-reactive”.

With `O=[N+]([O-])c1cc(O)ccc1Cl` [4-chloro-3-nitrophenol], the “result in the GSH screen (in words)” value in data set [1] (setting [4]) was “non-reactive”.

In the case of `N#Cc1ccc(Cl)cc1` [4-Chlorobenzonitrile], the “result in the GSH screen (in words)” value in data set [1] is listed as “non-reactive”.

For the compound `O=C1C=C(c2ccccc2)C(=O)N1` [Phenylmaleimide], the “potential reactivity” value in data set [1] (setting [3]) is “R”. Further, in data set [1] (setting [4]), the “result in the GSH screen (in words)” value is “reactive”.

Take `C/C=C/C=O` [trans Crotonaldehyde]: the “potential reactivity” value in data set [1] (setting [3]) was “R”. Moreover, the “result in the GSH screen (in words)” value in data set [1] (setting [4]) is “reactive”.

As to `ClC(Cl)Cl` [Chloroform], in data set [1], the “result in the GSH screen (in words)” value is reported as “non-reactive”.

For the compound `O=[N+]([O-])c1ccc(Cl)c([N+](=O)[O-])c1` [1-chloro-2,4-dinitrobenzene], the “result in the GSH screen (in words)” value in data set [1] (setting [4]) is given as “non-reactive”.

As for `c1ccccc1` [Benzene], the “result in the GSH screen (in words)” value in data set [1] (setting [4]) is on record as “non-reactive”.

As for `COc1ccc(Cl)c([N+](=O)[O-])c1` [4-chloro-3-nitroanisole], the “result in the GSH screen (in words)” value in data set [1] (setting [4]) was “non-reactive”.

Consider `O=C(CCCN1CCC(O)(c2ccc(Cl)cc2)CC1)c1ccc(F)cc1` [Haloperidol], for which, in data set [1] (setting [4]), the “result in the GSH screen (in words)” value is “non-reactive”.

Turning to `O=C(O)Cc1ccccc1Nc1c(Cl)cccc1Cl` [Diclofenac], the “result in the GSH screen (in words)” value in data set [1] (setting [4]) is on record as “non-reactive”.

`Nc1ccc(Cl)c([N+](=O)[O-])c1` [4-chloro-3-nitroaniline]: the “result in the GSH screen (in words)” value in data set [1] (setting [4]) was “non-reactive”.

For the compound `O=[N+]([O-])c1ccc(Cl)cc1` [1-Chloro-4-nitrobenzene], in data set [1], the “result in the GSH screen (in words)” value is on record as “non-reactive”.

On to `N#Cc1ccc(Cl)c([N+](=O)[O-])c1` [4-chloro-3-nitrobenzonitrile], for which the “result in the GSH screen (in words)” value in data set [1] (setting [4]) is “non-reactive”.

For the compound `O=C1NC(=O)C(c2ccccc2)(c2ccccc2)N1` [Phenytoin], the “result in the GSH screen (in words)” value in data set [1] (setting [4]) is listed as “non-reactive”.

For the compound `CC(=O)NC1=C(Cl)C(=O)c2ccccc2C1=O`, in data set [2], the “level of fluorescence, visual observation of the cuvette” value is given as “appreciably reduced” and the “electrophilic properties (conclusion)” value is “having electrophilic properties”. For the same compound, the “reactivity of this compound toward GSH as compared to the FM standard (in words)” value in data set [2] (setting [5]) is listed as “slightly greater”.

As for `O=C1C=CC(=O)N1c1cccc(C(F)(F)F)c1`, in data set [2], the “level of fluorescence, visual observation of the cuvette” value is on record as “does not appreciably change” and the “electrophilic properties (conclusion)” value was “not having electrophilic properties”. In addition, the “reactivity of this compound toward GSH as compared to the FM standard” value in data set [2] (setting [5]) was found to be 2.95 times less.

Regarding `Cc1cc(C(C)(C)C)c(O)c(C(C)(C)C)c1` [Butylated hydroxytoluene], the “result in the GSH screen (in words)” value in data set [1] (setting [4]) is recorded as “non-reactive”.
